This is an account of results in patent US20130310379A1, “MODULATORS OF METHYL MODIFYING ENZYMES, COMPOSITIONS AND USES THEREOF” (CONSTELLATION PHARMACEUTICALS, priority 2010, published 2013).

For this assay, the target named is EZH2 (Homo sapiens, UniProt Q15910). Description: EZH2 assay: rPRC2 with biotinylated oligonucleosome substrates and 3H SAM, FlashPlate scintillation counting, IC50. In kind it is biochemical. The following applies: rPRC2, biotinylated oligonucleosome substrates, 3H SAM; read-out: EZH2 IC50. The gist of the method: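 rPRC2 (2 nM EZH2) pre-incubated 20 min with compound (80 to 0.16 uM, ten 2-fold steps), then 60 min reaction with 0.2 uM 3H SAM, 0.2 uM biotinylated oligonucleosomes, 3.6 uM H3K27me3 peptide in Tris pH 8.5. SAH/EDTA quench; 4-parameter IC50 fit.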
Sequence of EZH2 (Q15910 whole entry): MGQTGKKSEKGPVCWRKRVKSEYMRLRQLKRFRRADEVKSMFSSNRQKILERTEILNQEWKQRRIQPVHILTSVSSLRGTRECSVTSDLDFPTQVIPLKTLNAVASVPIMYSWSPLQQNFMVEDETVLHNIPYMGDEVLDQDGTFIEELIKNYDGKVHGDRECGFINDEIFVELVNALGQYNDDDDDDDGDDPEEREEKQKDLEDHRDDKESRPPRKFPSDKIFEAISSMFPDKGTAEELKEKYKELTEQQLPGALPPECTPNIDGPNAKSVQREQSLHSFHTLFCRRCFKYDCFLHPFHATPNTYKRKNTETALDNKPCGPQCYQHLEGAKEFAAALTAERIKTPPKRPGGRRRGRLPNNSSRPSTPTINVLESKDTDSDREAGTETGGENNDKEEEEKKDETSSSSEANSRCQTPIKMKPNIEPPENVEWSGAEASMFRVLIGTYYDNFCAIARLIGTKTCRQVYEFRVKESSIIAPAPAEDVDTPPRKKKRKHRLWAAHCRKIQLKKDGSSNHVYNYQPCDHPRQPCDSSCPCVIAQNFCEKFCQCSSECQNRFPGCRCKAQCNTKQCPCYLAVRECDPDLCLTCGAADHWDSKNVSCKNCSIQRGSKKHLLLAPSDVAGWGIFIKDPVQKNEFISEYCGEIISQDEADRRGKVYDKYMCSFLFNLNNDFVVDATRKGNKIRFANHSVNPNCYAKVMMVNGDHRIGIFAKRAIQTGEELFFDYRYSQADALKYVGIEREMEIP
Sequence of EZH2 (O75530 whole entry partner): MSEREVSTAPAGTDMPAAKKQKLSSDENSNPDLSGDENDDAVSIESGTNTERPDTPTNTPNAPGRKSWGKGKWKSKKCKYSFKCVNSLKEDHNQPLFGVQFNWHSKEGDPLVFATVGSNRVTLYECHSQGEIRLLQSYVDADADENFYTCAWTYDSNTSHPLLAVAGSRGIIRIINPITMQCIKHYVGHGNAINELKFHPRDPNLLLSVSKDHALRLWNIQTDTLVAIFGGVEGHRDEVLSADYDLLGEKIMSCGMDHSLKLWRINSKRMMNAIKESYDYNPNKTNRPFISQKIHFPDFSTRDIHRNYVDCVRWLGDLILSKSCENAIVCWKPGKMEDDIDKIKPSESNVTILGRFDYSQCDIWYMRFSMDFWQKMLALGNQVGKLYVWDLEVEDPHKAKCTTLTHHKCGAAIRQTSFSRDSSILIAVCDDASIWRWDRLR
Sequence of EZH2 (Q15022 whole entry partner): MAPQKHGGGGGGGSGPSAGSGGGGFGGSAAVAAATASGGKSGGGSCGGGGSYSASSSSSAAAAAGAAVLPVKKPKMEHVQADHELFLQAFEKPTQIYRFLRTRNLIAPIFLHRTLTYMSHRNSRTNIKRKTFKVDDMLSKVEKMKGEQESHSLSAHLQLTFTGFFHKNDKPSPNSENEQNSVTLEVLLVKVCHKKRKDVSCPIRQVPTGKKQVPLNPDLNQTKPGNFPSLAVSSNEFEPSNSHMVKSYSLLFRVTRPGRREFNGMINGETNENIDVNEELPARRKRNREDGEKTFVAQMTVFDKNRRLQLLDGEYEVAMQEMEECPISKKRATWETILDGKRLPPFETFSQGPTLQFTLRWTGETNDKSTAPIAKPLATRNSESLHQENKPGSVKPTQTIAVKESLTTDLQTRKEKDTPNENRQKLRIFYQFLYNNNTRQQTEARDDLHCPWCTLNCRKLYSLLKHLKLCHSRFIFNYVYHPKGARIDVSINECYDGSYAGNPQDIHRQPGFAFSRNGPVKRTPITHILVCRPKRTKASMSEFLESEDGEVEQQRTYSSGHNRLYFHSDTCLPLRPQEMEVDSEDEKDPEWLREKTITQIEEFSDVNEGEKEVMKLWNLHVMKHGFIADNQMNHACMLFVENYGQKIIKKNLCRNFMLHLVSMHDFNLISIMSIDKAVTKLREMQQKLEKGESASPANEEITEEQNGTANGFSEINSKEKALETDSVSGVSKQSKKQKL
By IC50 is commonly meant the concentration that inhibits the measured activity by half. Turning to `CC1(C)CC(NC(=O)c2ccc(C(=O)Nc3cccc(Br)c3)cc2)CC(C)(C)N1` [Compound I-161], the IC50 is more than 80 µM.
As for `CC1(C)CC(NC(=O)c2ccc(NC(=O)c3cccc(Br)c3)cc2)CC(C)(C)N1` [Compound I-162], the figure is 20 to 80 µM.
As for `CC1(C)CC(NC(=O)c2ccc(COc3cccc(N4CCOCC4)c3)cc2)CC(C)(C)N1` [Compound I-164], the IC50 was more than 80 µM.
In the case of `CC1(C)CC(NC(=O)c2ccc(COc3cccc(N4CCNCC4)c3)cc2)CC(C)(C)N1` [Compound I-165] it was more than 80 µM.
Turning to `CC1(C)CC(NC(=O)c2ccc(COc3cccc(N4CCCNCC4)c3)cc2)CC(C)(C)N1` [Compound I-166], the 50% inhibitory concentration (IC50) was more than 80 µM.
Regarding `CC1(C)CC(NC(=O)c2ccc(Oc3cccc(OCc4ccccc4)c3)cc2)CC(C)(C)N1` [Compound I-168], the IC50 was 20 to 80 µM.
In the case of `CC1(C)CC(NC(=O)c2ccc(Oc3cccc(CN4CCCCC4)c3)cc2)CC(C)(C)N1` [Compound I-169] it was 5 to 20 µM; in that of `CCC(C)c1ccccc1Oc1ccc(C(=O)NC2CC(C)(C)NC(C)(C)C2)cc1` (stereo not drawn) [Compound I-170], 5 to 20 µM.
As for `CC1(C)CC(NC(=O)c2ccc(Oc3ccc4ncccc4c3)cc2)CC(C)(C)N1` [Compound I-172], the IC50 is more than 80 µM.
Take `CC1(C)CC(NC(=O)c2ccc(Oc3ccccc3C#N)cc2Cl)CC(C)(C)N1` [Compound I-174]: the IC50 lay within 20 to 80 µM.
In the case of `CC1(C)CC(NC(=O)c2ccc(Oc3ccccc3)cc2Cl)CC(C)(C)N1` [Compound I-175], the IC50 is more than 80 µM.
Consider `Cc1cccc(C#N)c1Oc1ccc(C(=O)NC2CC(C)(C)NC(C)(C)C2)cc1` [Compound I-176], for which the IC50 fell in the range of 20 to 80 µM.
For the compound `COc1ccc(Oc2ccc(C(=O)NC3CC(C)(C)NC(C)(C)C3)cc2)c(C#N)c1` [Compound I-177], the IC50 is more than 80 µM.
In the case of `N#Cc1ccccc1Oc1ccc(C(=O)NC2CCNCC2)cc1Cl` [Compound I-178], the IC50 is more than 80 µM.
As to `CC1(C)CC(NC(=O)c2ccc(Oc3ccccc3CO)cc2)CC(C)(C)N1` [Compound I-179], the IC50 is 20 to 80 µM.
`CC1(C)CC(NC(=O)c2ccc(Oc3cccc(Br)c3)cc2)CC(C)(C)N1` [Compound I-180]: the IC50 fell in the range of 20 to 80 µM.
As for `CC1(C)CC(NC(=O)c2ccc(Oc3cccc4c3CCCC4)cc2)CC(C)(C)N1` [Compound I-181], the figure is 5 to 20 µM.
As to `CC1(C)CC(NC(=O)c2ccc(COc3cccc4cnccc34)cc2)CC(C)(C)N1` [Compound I-182], the IC50 is 5 to 20 µM.
Turning to `C#Cc1cccc(OCc2ccc(C(=O)NC3CC(C)(C)NC(C)(C)C3)cc2)c1` [Compound I-184], the IC50 is less than 5 µM.
Consider `CC1(C)CC(NC(=O)c2ccc3oc4c(C#N)cccc4c3c2)CC(C)(C)N1` [Compound I-187], for which the IC50 was in the range of 20 to 80 µM.
In the case of `CC1(C)CC(NC(=O)c2ccc(COc3cccc4c3CCCC4)cc2)CC(C)(C)N1` [Compound I-188], the IC50 is less than 5 µM.
Take `CC1(C)CC(NC(=O)c2ccc(COc3cccc4cccnc34)cc2)CC(C)(C)N1` [Compound I-189]: the IC50 was in the range of 20 to 80 µM.
In the case of `CC1(C)CC(NC(=O)c2ccc(COc3cccc4ncccc34)cc2)CC(C)(C)N1` [Compound I-190] it was 5 to 20 µM; in that of `COc1cc(Oc2ccccc2C#N)ccc1C(=O)NC1CC(C)(C)NC(C)(C)C1` [Compound I-191], more than 80 µM; in that of `CC1(C)CC(C(=O)Nc2ccc(Oc3ccccc3)cc2)CC(C)(C)N1` [Compound I-192], more than 80 µM.
Regarding `CN1CCC(NC(=O)c2ccc(Oc3ccccc3C#N)c(Cl)c2)CC1` [Compound I-193], the IC50 was more than 80 µM.
As for `CC1(C)CC(NC(=O)c2ccc(Oc3ccccc3OCc3ccccc3)c(Cl)c2)CC(C)(C)N1` [Compound I-194], the figure is less than 5 µM.
As for `CC1(C)CC(NC(=O)c2ccc(Oc3ccccc3C3CCCCC3)c(Cl)c2)CC(C)(C)N1` [Compound I-195], the figure is 5 to 20 µM; as for `CC1(C)CC(NC(=O)c2ccc(Oc3ccccc3C#N)c(N3CCOCC3)c2)CC(C)(C)N1` [Compound I-196], less than 5 µM.
Take `CC1(C)CC(NC(=O)c2ccc(Oc3ccccc3C#N)c(-c3ccccc3)c2)CC(C)(C)N1` [Compound I-197]: the IC50 is less than 5 µM.
On to `CCCc1cc(C(=O)NC2CC(C)(C)NC(C)(C)C2)ccc1Oc1ccccc1C#N` [Compound I-198], for which the IC50 is less than 5 µM.
With `CC1(C)CC(NC(=O)c2ccc3cc(Oc4ccccc4C#N)ccc3c2)CC(C)(C)N1` [Compound I-200], the IC50 was 20 to 80 µM.
With `CC1(C)CC(NC(=O)c2ccc(Oc3ccccc3C#N)c(Cc3ccccc3)c2)CC(C)(C)N1` [Compound I-201], the IC50 was less than 5 µM.
As for `CC1(C)CC(NC(=O)c2ccc(Oc3ccccc3C#N)c(-c3cncnc3)c2)CC(C)(C)N1` [Compound I-202], the IC50 was 5 to 20 µM.
As for `CC1(C)CC(NC(=O)c2ccc(Oc3ccccc3)cc2F)CC(C)(C)N1` [Compound I-203], the IC50 is more than 80 µM.
As for `COc1cc(Oc2ccccc2)ccc1C(=O)NC1CC(C)(C)NC(C)(C)C1` [Compound I-204], the figure is more than 80 µM.
As for `CC1(C)CC(NC(=O)c2ccc(Oc3ccccc3C#N)cn2)CC(C)(C)N1` [Compound I-205], the figure is 5 to 20 µM.
Consider `CC1(C)CC(NC(=O)c2ccc(Oc3ccccc3-c3ccccc3)c(Cl)c2)CC(C)(C)N1` [Compound I-206], for which the IC50 was less than 5 µM.
As to `CC(Oc1ccccc1Oc1ccc(C(=O)NC2CC(C)(C)NC(C)(C)C2)cc1)c1ccccc1` (stereo not drawn) [Compound I-208], the IC50 is 5 to 20 µM.
For the compound `CC1(C)CC(NC(=O)c2ccc(Oc3ccccc3OCc3ccncc3)cc2)CC(C)(C)N1` [Compound I-209], the IC50 was in the range of 5 to 20 µM.
For `CC1(C)CC(NC(=O)c2ccc(Oc3ccccc3C(C)(C)C)c(Cl)c2)CC(C)(C)N1` [Compound I-210], the IC50 was in the range of 20 to 80 µM.
`CC1(C)CC(NC(=O)c2ccc(Oc3ccccc3C#N)c(-c3cccnc3)c2)CC(C)(C)N1` [Compound I-211]: the IC50 is less than 5 µM.
`CC1(C)CC(NC(=O)c2ccc(Oc3ccccc3C#N)c(-c3ccsc3)c2)CC(C)(C)N1` [Compound I-212]: the IC50 was less than 5 µM.
With `CC1(C)CC(NC(=O)c2ccc(Oc3ccccc3C#N)c(-c3cn[nH]c3)c2)CC(C)(C)N1` [Compound I-213], the IC50 is less than 5 µM.
Consider `Cc1noc(C)c1-c1cc(C(=O)NC2CC(C)(C)NC(C)(C)C2)ccc1Oc1ccccc1C#N` [Compound I-214], for which the IC50 lay in the range of 20 to 80 µM.
On to `CC1(C)CC(NC(=O)c2ccc(COc3ccccc3)c(Br)c2)CC(C)(C)N1` [Compound I-215], for which the IC50 fell in the range of 20 to 80 µM.
In the case of `CC1(C)CC(NC(=O)c2ccc(Oc3ccccc3C#N)c(C(F)(F)F)c2)CC(C)(C)N1` [Compound I-218], the IC50 is less than 5 µM.
In the case of `CC1(C)CC(NC(=O)c2ccc(Oc3cccnc3C#N)c(Br)c2)CC(C)(C)N1` [Compound I-219], the IC50 was less than 5 µM.
As for `CC1(C)CC(NC(=O)c2ccc(Oc3ncccc3C#N)c(Br)c2)CC(C)(C)N1` [Compound I-220], the half-inhibitory concentration (IC50) is less than 5 µM.
With `CC1(C)CC(NC(=O)c2ccc(Oc3ccccc3C#N)c(C3CC3)c2)CC(C)(C)N1` [Compound I-221], the IC50 is less than 5 µM.
As for `CC1(C)CC(NC(=O)c2ccc(Oc3cccc4ncccc34)cc2)CC(C)(C)N1` [Compound I-222], the IC50 was more than 80 µM.
With `C#Cc1ccccc1Oc1ccc(C(=O)NC2CC(C)(C)NC(C)(C)C2)cc1` [Compound I-224], the IC50 was in the range of 5 to 20 µM.
With `CC1(C)CC(NC(=O)c2ccc(Oc3ccccc3-c3ccccn3)c(Cl)c2)CC(C)(C)N1` [Compound I-225], the IC50 was in the range of 5 to 20 µM.
For the compound `CC1(C)CC(NC(=O)c2ccc(Oc3ccccc3-c3ccncc3)c(Cl)c2)CC(C)(C)N1` [Compound I-226], the IC50 is less than 5 µM.
As for `CC1(C)CC(NC(=O)c2ccc(Oc3ccccc3-c3ccc(N)nc3)c(Cl)c2)CC(C)(C)N1` [Compound I-227], the figure is less than 5 µM.
`CC1(C)CC(NC(=O)c2ccc(Oc3ccccc3C3=CCNCC3)c(Cl)c2)CC(C)(C)N1` [Compound I-229]: the concentration for half-maximal inhibition (IC50) lay within 5 to 20 µM.
Regarding `CC1(C)CC(NC(=O)c2ccc(Oc3ccccc3C3CCNCC3)c(Cl)c2)CC(C)(C)N1` [Compound I-230], the IC50 was 5 to 20 µM.
As for `CC1(C)CC(NC(=O)c2ccc(Oc3ccccc3OCc3ccccn3)cc2)CC(C)(C)N1` [Compound I-231], the figure is 5 to 20 µM; as for `CC1(C)CC(NC(=O)c2ccc(Oc3ccccc3OCc3cccnc3)cc2)CC(C)(C)N1` [Compound I-232], 20 to 80 µM; as for `CC1(C)CC(NC(=O)c2ccc(Oc3ccccc3C(=O)N3CCCC3)c(Cl)c2)CC(C)(C)N1` [Compound I-233], more than 80 µM.
Turning to `CC1(C)CC(NC(=O)c2ccc(Oc3cccc(CN4CCOCC4)c3)cc2)CC(C)(C)N1` [Compound I-234], the IC50 was more than 80 µM.
In the case of `CC1(C)CC(NC(=O)c2ccc(Oc3cccc(CN4CCCC4)c3)cc2)CC(C)(C)N1` [Compound I-235] it was 5 to 20 µM; in that of `CNCc1cccc(Oc2ccc(C(=O)NC3CC(C)(C)NC(C)(C)C3)cc2)c1` [Compound I-236], 5 to 20 µM.
Take `CC(C)c1cc(C(=O)NC2CC(C)(C)NC(C)(C)C2)ccc1Oc1ccccc1C#N` [Compound I-237]: the IC50 was less than 5 µM.
`CC1(C)CC(NC(=O)c2ccc(Oc3ccccc3C#N)c(C3CCCC3)c2)CC(C)(C)N1` [Compound I-238]: the IC50 was in the range of 5 to 20 µM.
In the case of `CC1(C)CC(NC(=O)c2ccc(Oc3ccccc3C#N)c(COc3ccccc3)c2)CC(C)(C)N1` [Compound I-239], the IC50 was less than 5 µM.
As for `CC1(C)CC(NC(=O)c2ccc(COc3ccccc3C#N)cc2)CC(C)(C)N1` [Compound I-240], the IC50 was more than 80 µM.
Take `CC1(C)CC(NC(=O)c2ccc(CCc3ccccc3)cc2)CC(C)(C)N1` [Compound I-241]: the IC50 was more than 80 µM.
In the case of `CC1(C)CC(NC(=O)c2ccc(Oc3nccc4ccccc34)c(Cl)c2)CC(C)(C)N1` [Compound I-242] it was 20 to 80 µM.
